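Protocol summary: plate cells (96-well), add compound at 5 concentrations, incubate 48 h, interpolate endpoints linearly. At the GI50, growth is halved.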 The source made the active and inactive calls. Cut-off read from the data, not from the text of the source: active = GI50 up to about 1.1 µM and inactive = higher.
Tests used:
Experiment in all cases: NCI tumour cell line growth inhibition, 48 h
U-251 = test system: U-251
ACHN = test system: ACHN
HCT-116 = test system: HCT-116
HOP-62 = test system: HOP-62
K562 = test system: K562
UO-31 = test system: UO-31
OVCAR-3 = test system: OVCAR-3
SN12C = test system: SN12C
SNB-78 = test system: SNB-78
SNB-75 = test system: SNB-75
A549 = test system: A549
BT-549 = test system: BT-549
PC-3 = test system: PC-3
DU-145 = test system: DU-145
MDA-MB-435 = test system: MDA-MB-435
CAKI-1 = test system: CAKI-1
MDA-N = test system: MDA-N
SK-OV-3 = test system: SK-OV-3
SF-295 = test system: SF-295
A498 = test system: A498

SMILES	GI50 (U-251)	GI50 (ACHN)	GI50 (HCT-116)	GI50 (HOP-62)	GI50 (K562)	GI50 (UO-31)	GI50 (OVCAR-3)	GI50 (SN12C)	GI50 (SNB-78)	GI50 (SNB-75)	GI50 (A549)	GI50 (BT-549)	GI50 (PC-3)	GI50 (DU-145)	GI50 (MDA-MB-435)	GI50 (CAKI-1)	GI50 (MDA-N)	GI50 (SK-OV-3)	GI50 (SF-295)	GI50 (A498)
O=C(NNC(=S)Nc1ccccc1)c1nsc2ccccc12	27.1 µM (inactive)	39.7 µM (inactive)	25.2 µM (inactive)	36.7 µM (inactive)	35.7 µM (inactive)	25.5 µM (inactive)	10.3 µM (inactive)	31.5 µM (inactive)	47.9 µM (inactive)	25.1 µM (inactive)	28.8 µM (inactive)	–	–	–	–	–	–	–	–	–
C=CCOC1OC(CS(=O)(=O)O)C(O)C(O)C1O (centres undefined)	> 100 µM (inactive)	–	> 100 µM (inactive)	> 100 µM (inactive)	27 µM (inactive)	> 100 µM (inactive)	> 100 µM (inactive)	> 100 µM (inactive)	–	> 100 µM (inactive)	–	> 100 µM (inactive)	> 100 µM (inactive)	> 100 µM (inactive)	> 100 µM (inactive)	> 100 µM (inactive)	> 100 µM (inactive)	> 100 µM (inactive)	> 100 µM (inactive)	> 100 µM (inactive)
CSC1SCC2C(=O)N(C)C(C(C)C)C(=O)OCC(NC(=O)c3cnc4ccccc4n3)C(=O)NC(C)C(=O)N(C)C1C(=O)N(C)C(C(C)C)C(=O)OCC(NC(=O)c1cnc3ccccc3n1)C(=O)NC(C)C(=O)N2C (centres undefined)	0.0075 µM (active)	–	0.00885 µM (active)	0.0075 µM (active)	–	0.0083 µM (active)	0.0075 µM (active)	0.0075 µM (active)	0.0075 µM (active)	–	0.0075 µM (active)	0.00158 µM (active)	0.000993 µM (active)	0.0031 µM (active)	0.00105 µM (active)	0.0075 µM (active)	–	< 0.0147 µM (active)	0.0075 µM (active)	0.0075 µM (active)
CN(C)C(=O)Oc1c(Br)cc(Br)cc1C(=O)OCc1ccccc1	21.6 µM (inactive)	–	14.5 µM (inactive)	28.2 µM (inactive)	28.2 µM (inactive)	20.3 µM (inactive)	19.1 µM (inactive)	20.8 µM (inactive)	33.1 µM (inactive)	32 µM (inactive)	28.1 µM (inactive)	–	–	–	–	23.3 µM (inactive)	–	44.9 µM (inactive)	20.9 µM (inactive)	23 µM (inactive)
CCN(CC)/[N+]([O-])=N/O	–	> 100 µM (inactive)	> 100 µM (inactive)	> 100 µM (inactive)	> 100 µM (inactive)	> 100 µM (inactive)	> 100 µM (inactive)	> 100 µM (inactive)	> 100 µM (inactive)	–	> 100 µM (inactive)	–	–	–	–	> 100 µM (inactive)	–	> 100 µM (inactive)	> 100 µM (inactive)	> 100 µM (inactive)
O=C(CCCn1cnc([N+](=O)[O-])n1)NCCn1ccnc1[N+](=O)[O-]	> 100 µM (inactive)	> 100 µM (inactive)	–	> 100 µM (inactive)	> 100 µM (inactive)	> 100 µM (inactive)	> 100 µM (inactive)	–	–	> 100 µM (inactive)	> 100 µM (inactive)	> 100 µM (inactive)	> 100 µM (inactive)	> 100 µM (inactive)	–	> 100 µM (inactive)	> 100 µM (inactive)	> 100 µM (inactive)	> 100 µM (inactive)	–
COc1cc([C@@H]2c3cc4c(cc3[C@H](O)[C@H]3COC(=O)[C@H]23)OCO4)cc(OC)c1OC [PODOFILOX]	–	< 0.005 µM (active)	< 0.005 µM (active)	–	< 0.005 µM (active)	–	–	–	0.01 µM (active)	–	–	0.0232 µM (active)	< 0.005 µM (active)	< 0.005 µM (active)	< 0.005 µM (active)	0.0897 µM (active)	< 0.005 µM (active)	< 0.005 µM (active)	< 0.005 µM (active)	< 0.005 µM (active)
